Experimental data as given in patent US10676514B2, “CDCA1-derived peptide and vaccine containing same” (ONCOTHERAPY SCIENCE, INC., priority 2014, dated 2020).
“Also recorded” adds a separate entry of the source.

Columns and labels:
[1] = system: peptide-pulsed C1R-A11 cells; assay: IFN-gamma ELISPOT assay of peptide-induced CTLs (HLA-A*1101); format: cell-based, human; conditions: CTLs induced from HLA-A*1101-positive donors, peptide-pulsed C1R-A11 vs control
Description: Monocyte-derived dendritic cells (DCs) were used as the antigen-presenting cell to induce a cytotoxic T lymphocyte (CTL) response against peptides presented on human leukocyte antigens (HLAs). As described in the other sections, DCs were generated in vitro (Nakahara S et al., Cancer Res 2003, 63(14): 4112-8). Specifically, peripheral-blood mononuclear cells isolated from healthy volunteers (HLA-A*1101-positive) with the Ficoll-Paque plus solution (Pharmacia) were separated by attaching to plastic tissue culture dishes (Becton Dickinson) and concentrated as a monocyte fraction. The monocyte-concentrated population was cultured in the presence of 1000 IU/ml granulocyte macrophage colony-stimulating factor (R&D System) and 1000 IU/ml interleukin(IL)-4 (R&D System) in an AIM-V medium (Invitrogen) containing 2% heat-inactivated autologous serum (AS). After seven days of culturing, the cytokine-induced DCs were pulsed with 20 micro-g/ml each of the synthesized peptides in an AIM-V medium at 37 degrees C. for three hours in the presence of 3 micro-g/ml beta 2-microglobulin. The generated cells appeared to express on their cell surface DC-associated molecules such as CD80, CD83, CD86 and HLA class II (data not shown). Next, these peptide-pulsed DCs were inactivated by X-ray irradiation (20 Gy), and mixed in a 1:20 ratio with autologous CD8^+ T cells obtained by positive selection using the CD8 Positive Isolation Kit (Dynal). These culture products were seeded in a 48-well plate (Corning). Each well was made to contain 1.5×10^4 peptide-pulsed DCs, 3×10^5 CD8^+ T cells and 10 ng/ml IL-7 (R&D System) in 0.5 ml of the AIM-V/2% AS medium. Three days later, these culture products were added with a final concentration of 20 IU/ml IL-2 (CHIRON). On day 7 and day 14, T cells were further stimulated with peptide-pulsed autologous DCs. The DCs were prepared every time by the same method as above. On day 21, after the third peptide stimulation, CTLs were examined against the peptide-pulsed C1R-A11 cells by a human interferon (IFN)-gamma enzyme-linked immunospot (ELISPOT) assay (Tanaka H et al., Br J Cancer 2001, 84(1): 94-9; Umano Y et al., Br J Cancer 2001, 84(8): 1052-7; Uchida N et al., Clin Cancer Res 2004, 10(24): 8577-86; Suda T et al., Cancer Sci 2006, 97(5): 411-9; Watanabe T et al., Cancer Sci 2005, 96(8): 498-506).
(§1) Specifically, peptide-pulsed C1R-A11 (1×10^4 cells/well) was prepared as the stimulator cell. The induced CTLs, i.e., CTL lines and CTL clones, were used as the responder cell. The IFN-gamma ELISPOT assay and IFN-gamma ELISA were performed according to the manufacturer's manual.

peptide-pulsed C1R-A11 = assay: IFN-gamma ELISA of CTL lines and CTL clones (HLA-A*1101); format: cell-based, human; conditions: for IFN-gamma production of CTL lines: peptide-pulsed vs non-pulsed target cells, HLA-A*1101
Procedure: CTLs were propagated in culture using methods similar to those disclosed by Riddell et al. (Walter E A et al., N Engl J Med 1995, 333(16): 1038-44; Riddell S R et al., Nat Med 1996, 2(2): 216-23). The CTLs were co-cultured in a total of 25 ml AIM-V medium containing 5% AS (AIM-V/5% AS) and 40 ng/ml anti-CD3 antibody with two types of Mitomycin C-treated human B lymphoblastoid cell lines at 5×10^6 cells/flask. One day after beginning of the culturing, 120 IU/ml IL-2 was added to the culture. On days 5, 8 and 11, a fresh AIM-V/5% AS medium containing 30 IU/ml IL-2 was added to the culture (Tanaka H et al., Br J Cancer 2001, 84(1): 94-9; Umano Y et al., Br J Cancer 2001, 84(8): 1052-7; Uchida N et al., Clin Cancer Res 2004, 10(24): 8577-86; Suda T et al., Cancer Sci 2006, 97(5): 411-9; Watanabe T et al., Cancer Sci 2005, 96(8): 498-506).
Dilution of CTLs was carried out to make 0.3, 1 and 3 cells/well in 96 round-bottomed microtiter plates (Nalge Nunc International). The CTLs were co-cultured with two types of Mitomycin C-treated human B lymphoblastoid cell lines at 1×10^4 cells/well in a total of 150 micro-l/well AIM-V/5% AS medium with 30 ng/ml anti-CD3 antibody and 125 IU/ml IL-2. Ten days later, IL-2 was added to the medium at 50 micro-l/well to reach a final concentration of 125 IU/ml. On day 14, the CTL activity was tested, and the CTL clones were propagated using the same method as described above (Uchida N et al., Clin Cancer Res 2004, 10(24): 8577-86; Suda T et al., Cancer Sci 2006, 97(5): 411-9; Watanabe T et al., Cancer Sci 2005, 96(8): 498-506).
as §1

Sequence: AAHQEALMK (a peptide derived from CDCA1) [SEQ ID NO: 13]
- peptide-specific CTL activity (IFN-gamma production) ([1]; listed as CDCA1-A1-9-157): potent IFN-gamma production
- peptide-specific CTL activity (IFN-gamma production) ([1]; listed as CDCA1-A11-9-157): potent IFN-gamma production; also recorded: significant specific CTL activity
- IFN-gamma production of CTL lines (peptide-pulsed C1R-A11): potent IFN-gamma production

Sequence: CQLEVQLYQK (a peptide derived from CDCA1) [SEQ ID NO: 39]
- peptide-specific CTL activity (IFN-gamma production) ([1]; listed as CDCA1-A11-10-289): potent IFN-gamma production; also recorded: significant specific CTL activity
- peptide-specific CTL activity (IFN-gamma production) ([1]; listed as CDCA1A11-10-289): potent IFN-gamma production

Sequence: GADGKNLTK (a peptide derived from CDCA1) [SEQ ID NO: 21]
- peptide-specific CTL activity (IFN-gamma production) ([1]; listed as CDCA1-A11-9-25): potent IFN-gamma production; also recorded: significant specific CTL activity
- IFN-gamma production of CTL lines (peptide-pulsed C1R-A11): potent IFN-gamma production

Sequence: IVDSPEKLK (a peptide derived from CDCA1) [SEQ ID NO: 14]
- peptide-specific CTL activity (IFN-gamma production) ([1]; listed as CDCA1-A11-9-244): potent IFN-gamma production; also recorded: significant specific CTL activity

Sequence: IVLQEGNSQK (a peptide derived from CDCA1) [SEQ ID NO: 40]
- peptide-specific CTL activity (IFN-gamma production) ([1]; listed as CDCA1-A11-10-203): potent IFN-gamma production; also recorded: significant specific CTL activity

Sequence: KAAEDSYAK (a peptide derived from CDCA1) [SEQ ID NO: 9]
- peptide-specific CTL activity (IFN-gamma production) ([1]; listed as CDCA1-A11-9-439): potent IFN-gamma production; also recorded: significant specific CTL activity
- IFN-gamma production of CTL lines (peptide-pulsed C1R-A11): potent IFN-gamma production

Sequence: KILTGADGK (a peptide derived from CDCA1) [SEQ ID NO: 12]
- peptide-specific CTL activity (IFN-gamma production) ([1]; listed as CDCA1-A1-9-21): potent IFN-gamma production
- peptide-specific CTL activity (IFN-gamma production) ([1]; listed as CDCA1-A11-9-21): potent IFN-gamma production; also recorded: significant specific CTL activity

Sequence: KINKKHEDVK (a peptide derived from CDCA1) [SEQ ID NO: 58]
- peptide-specific CTL activity (IFN-gamma production) ([1]; listed as CDCA1-A1-10-358): potent IFN-gamma production
- peptide-specific CTL activity (IFN-gamma production) ([1]; listed as CDCA1-A11-10-358): significant specific CTL activity
- peptide-specific CTL activity (IFN-gamma production) ([1]; listed as CDCA1A11-10-358): potent IFN-gamma production
- IFN-gamma production of CTL lines (peptide-pulsed C1R-A11): potent IFN-gamma production

Sequence: KSNISEKTK (a peptide derived from CDCA1) [SEQ ID NO: 17]
- peptide-specific CTL activity (IFN-gamma production) ([1]; listed as CDCA1-A11-9-213): potent IFN-gamma production; also recorded: significant specific CTL activity

Sequence: KTEENSFKR (a peptide derived from CDCA1) [SEQ ID NO: 19]
- peptide-specific CTL activity (IFN-gamma production) ([1]; listed as CDCA1-A1-9-335): potent IFN-gamma production
- peptide-specific CTL activity (IFN-gamma production) ([1]; listed as CDCA1-A11-9-335): potent IFN-gamma production; also recorded: significant specific CTL activity

Sequence: NAAHQEALMK (a peptide derived from CDCA1) [SEQ ID NO: 45]
- peptide-specific CTL activity (IFN-gamma production) ([1]; listed as CDCA1-A1-10-156): significant specific CTL activity
- peptide-specific CTL activity (IFN-gamma production) ([1]; listed as CDCA1-A11-10-156): potent IFN-gamma production

Sequence: NSFKRLMIVK (a peptide derived from CDCA1) [SEQ ID NO: 30]
- peptide-specific CTL activity (IFN-gamma production) ([1]; listed as CDCA1-A11-10-339): potent IFN-gamma production; also recorded: significant specific CTL activity
- IFN-gamma production of CTL lines (peptide-pulsed C1R-A11): potent IFN-gamma production

Sequence: SFKRLMIVKK (a peptide derived from CDCA1) [SEQ ID NO: 53]
- peptide-specific CTL activity (IFN-gamma production) ([1]; listed as CDCA1-A11-10-340): potent IFN-gamma production; also recorded: significant specific CTL activity

Sequence: SQEIFLNLK (a peptide derived from CDCA1) [SEQ ID NO: 6]
- peptide-specific CTL activity (IFN-gamma production) ([1]; listed as CDCA1-A11-9-419): potent IFN-gamma production; also recorded: significant specific CTL activity
- IFN-gamma production of CTL clones (peptide-pulsed C1R-A11; CTL clones by limiting dilution, peptide-pulsed C1R-A11, listed as CDCA1-A11-9-419): Potent IFN-gamma production
- IFN-gamma production of CTL lines (peptide-pulsed C1R-A11): potent IFN-gamma production

Sequence: TADILCPKAK (a peptide derived from CDCA1) [SEQ ID NO: 56]
- peptide-specific CTL activity (IFN-gamma production) ([1]; listed as CDCA1-A1-10-106): significant specific CTL activity
- peptide-specific CTL activity (IFN-gamma production) ([1]; listed as CDCA1-A11-10-106): potent IFN-gamma production

Sequence: TAELKRKMFK (a peptide derived from CDCA1) [SEQ ID NO: 35]
- peptide-specific CTL activity (IFN-gamma production) ([1]; listed as CDCA1-A11-10-452): potent IFN-gamma production; also recorded: significant specific CTL activity

Sequence: VTTINQEIQK (a peptide derived from CDCA1) [SEQ ID NO: 33]
- peptide-specific CTL activity (IFN-gamma production) ([1]; listed as CDCA1-A1-10-391): no specific IFN-gamma production
- peptide-specific CTL activity (IFN-gamma production) ([1]; listed as CDCA1-A11-10-391): specific IFN-gamma production was not observed
